Measured values taken from ChEMBL document CHEMBL2429715, “Potent P-glycoprotein inhibition of emodin derivative: synthesis and biological evaluation” (Med Chem Res, 2013).

How the values were obtained:
[1] = molecular target: T1, ATP-dependent translocase ABCB1 (Homo sapiens, UniProt P08183); experiment: Inhibition of P-glycoprotein in human K562/ADR cells at 10 to 20 uM after 30 mins by rhodamine 123 staining-based fluorescence assay; format: cell-based; details: 0.5 h
[2] = molecular target: T1, ATP-dependent translocase ABCB1; experiment: Inhibition of P-glycoprotein in human K562/ADR cells after 30 mins by rhodamine 123 staining-based fluorescence assay; format: cell-based; details: 0.5 h
[3] = Growth inhibition of human QSG7701 cells at 10 uM after 48 hrs by MTT assay relative to control; details: read-out: GI
HepG2 = experiment: Growth inhibition of human HepG2 cells at 10 uM after 48 hrs by MTT assay relative to control; format: functional; details: HepG2, 48 h, read-out: GI
HCT-116 = experiment: Growth inhibition of human HCT116 cells at 10 uM after 48 hrs by MTT assay relative to control; format: functional; details: HCT-116, 48 h, read-out: GI
K562 = experiment: Growth inhibition of human K562 cells at 10 uM after 48 hrs by MTT assay relative to control; format: functional; details: K562, 48 h, read-out: GI
[4] = molecular target: T1, ATP-dependent translocase ABCB1; experiment: Inhibition of P-glycoprotein in human K562/ADR cells at 20 to 50 uM after 30 mins by rhodamine 123 staining-based fluorescence assay; format: cell-based; details: 0.5 h

T1 sequence (P08183 whole entry): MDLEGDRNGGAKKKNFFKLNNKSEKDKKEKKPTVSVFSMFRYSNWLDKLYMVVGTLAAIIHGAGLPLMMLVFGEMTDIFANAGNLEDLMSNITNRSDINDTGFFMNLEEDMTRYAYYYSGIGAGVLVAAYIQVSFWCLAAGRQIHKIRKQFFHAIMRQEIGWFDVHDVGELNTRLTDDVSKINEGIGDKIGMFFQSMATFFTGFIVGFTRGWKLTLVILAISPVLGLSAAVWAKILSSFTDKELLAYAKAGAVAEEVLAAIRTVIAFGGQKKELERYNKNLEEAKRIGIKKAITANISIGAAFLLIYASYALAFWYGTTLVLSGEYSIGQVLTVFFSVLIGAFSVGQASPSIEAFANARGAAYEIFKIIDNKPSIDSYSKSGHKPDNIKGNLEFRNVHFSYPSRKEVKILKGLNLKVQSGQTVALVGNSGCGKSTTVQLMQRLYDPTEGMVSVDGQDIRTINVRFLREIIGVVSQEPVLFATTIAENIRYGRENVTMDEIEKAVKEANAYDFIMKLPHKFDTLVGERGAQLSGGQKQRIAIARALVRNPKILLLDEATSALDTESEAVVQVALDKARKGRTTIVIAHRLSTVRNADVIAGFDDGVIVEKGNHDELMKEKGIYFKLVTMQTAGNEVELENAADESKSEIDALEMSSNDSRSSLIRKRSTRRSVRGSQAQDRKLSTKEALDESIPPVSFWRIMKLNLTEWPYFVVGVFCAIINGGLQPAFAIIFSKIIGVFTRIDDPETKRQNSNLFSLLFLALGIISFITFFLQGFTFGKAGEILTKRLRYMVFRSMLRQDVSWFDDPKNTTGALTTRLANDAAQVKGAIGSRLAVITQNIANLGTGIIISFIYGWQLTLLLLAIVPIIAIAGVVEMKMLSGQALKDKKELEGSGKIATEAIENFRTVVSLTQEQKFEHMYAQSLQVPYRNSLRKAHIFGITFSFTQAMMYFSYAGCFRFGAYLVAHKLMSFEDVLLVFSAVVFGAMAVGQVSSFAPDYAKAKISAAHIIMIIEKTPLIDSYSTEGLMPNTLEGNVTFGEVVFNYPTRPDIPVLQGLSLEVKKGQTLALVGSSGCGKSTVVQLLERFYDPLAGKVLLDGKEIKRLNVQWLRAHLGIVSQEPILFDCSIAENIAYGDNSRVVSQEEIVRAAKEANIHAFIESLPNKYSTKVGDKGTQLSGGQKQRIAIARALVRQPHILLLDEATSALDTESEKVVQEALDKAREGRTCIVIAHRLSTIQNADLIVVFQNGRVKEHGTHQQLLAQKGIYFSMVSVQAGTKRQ

Compound | inhibition (INH) [1] | inhibition (INH) [2] | inhibition (INH) [4] | inhibition at 48 h, 10 µM [3] [%] | inhibition of growth at 10 µM (HepG2) [%] | inhibition of growth at 10 µM (HCT-116) [%] | inhibition of growth at 10 µM (K562) [%]
COc1cc(OC)c2c(c1)C(=O)c1cc(CNCCCNCCCN)cc(OC)c1C2=O.Cl | Active | Dose-dependent effect |  | 0.01 | 5.85 | 15.3 | 0.01
COc1cc(OC)c2c(c1)C(=O)c1cc(CNCCN)cc(OC)c1C2=O.Cl.Cl |  |  | Not Active | 2.55 | 0.01 | 25.4 | 0.01
COc1ccc(CCN(C)CCCC(C#N)(c2ccc(OC)c(OC)c2)C(C)C)cc1OC (stereo unspecified) [VERAPAMIL] | Active |  |  |  |  |  | 
O=C1c2c(O)ccc(O)c2C(=O)c2c(NCCNCCO)ccc(NCCNCCO)c21 [MITOXANTRONE] |  |  |  | 59 | 62.7 | 53.2 | 52.1

Continued, in another order:

inhibition (INH) [1] | inhibition (INH) [2] | inhibition (INH) [4] | Compound | inhibition at 48 h, 10 µM [3] [%] | inhibition of growth at 10 µM (HepG2) [%] | inhibition of growth at 10 µM (HCT-116) [%] | inhibition of growth at 10 µM (K562) [%]
 |  | Not Active | COc1cc(OC)c2c(c1)C(=O)c1cc(CNCCCN)cc(OC)c1C2=O.Cl.Cl | 5.77 | 0.01 | 31.9 | 0.01
 |  | Not Active | COc1cc(OC)c2c(c1)C(=O)c1cc(CNCCCCN)cc(OC)c1C2=O.Cl.Cl | 0.01 | 0.01 | 27.5 | 0.01
